# Assay results: patent US11358944B2, “Anxiolytic deuterated compound and medical use thereof” (BEIJING JUNKE HUAYUAN MED TECH CO., LTD., priority 2017, dated 2022)
# Legend:
# Wistar rats = test: elevated plus-maze test on rats (anxiolytic effect); format: in vivo, rat; conditions: 30 min after administration, within 5 minutes
# Protocol: The anxiolytic effect of the compounds was evaluated using an elevated plus-maze test on rats.
# The elevated plus-maze consists of two closed arms and two open arms cross each other with length, width and height respectively of 50 cm, 10 cm and 40 cm.
# The central connecting area is 10 cm (length)×10 cm (width), and the maze is 50 cm above the ground, placed in the darker side of the fluorescent lamp and 1 meter away from the lamp. Wistar rats were randomly divided into groups with 5 per group, and the rats were fasted but not deprived of water for 12 hours; The test compound was formulated with 0.5% sodium carboxymethylcellulose into a suspension of certain concentration for intragastric administration. Thirty minutes after administration, the rats were placed in the central connecting area of the maze with the heads facing the direction of the open arms. Then the dwell time of the animals in the open arms within 5 minutes was recorded.
# [1] = subacute toxicity, 7-day intragastric administration: blood biochemical and hematological indicators; format: in vivo, rat; conditions: 60 mg/kg intragastric once a day for 7 days; for plasma ALT compared with control group (Solvent group) / plasma AST compared with control group (Solvent group): SD rats, result in words; for ALT / AST: male Sprague-Dawley rats
# Protocol: (§1) Male Sprague-Dawley rats (220-240 g), were randomly divided into groups with 5 per group; The test compound was formulated with 0.5% sodium carboxymethylcellulose into a preparation of a concentration of 60 mg/kg for intragastric administration once a day and continuously for 7 days. After the last administration, the SD rats were fasted but not deprived of water for 12 hours, and anesthetized. Their blood samples were obtained from the abdominal aortas and made to serum samples for determination of blood biochemical indicators and immunological indicators; EDTA Anticoagulated blood was prepared for general blood routine determination. Referring to the method of the literature (En Li, et al. Effect of buagafuran on liver microsomal cytochrome P450 in rats. J Asian Natural Products Research. 2010; 12: 371-381.), liver microsome was prepared from the liver taken, and the activity of CYP isoenzyme was determined using a probe substrate. The relative enzymatic activity of the test compound was calculated by taking the activity of the solvent group as 1.
# CYP1A1 = test: induction of liver metabolic enzyme, liver microsome probe substrate activity after 7-day administration; format: in vivo, rat; conditions: 60 mg/kg intragastric once a day for 7 days; for Relative enzyme activity CYP1A1: rat liver microsome, solvent group = 1; for activity of metabolic enzyme CYP1A1 in the liver compared with solvent group: result in words
# Protocol: as §1
# CYP2E1 [2] = test: as above; format: in vivo, rat; conditions: 60 mg/kg intragastric once a day for 7 days; for Relative enzyme activity CYP2E1: rat liver microsome, solvent group = 1; for activity of metabolic enzyme CYP2E1 in the liver compared with solvent group: result in words
# Protocol: as §1
# [3] = background statement; cited from earlier work
# [4] = background statement; cited from earlier work; remark: listed apart in the source
# CYP1A2 = conditions: literature, rats; cited from earlier work
# CYP2E1 [5] = conditions: literature, rats; cited from earlier work
smiles,measurement,setting,value
"[2H]C1([2H])C=C(CCCC)[C@@]23C[C@@H](CC[C@]2(C)C1)C(C)(C)O3 [I-1, d2-BAF]",dwell time in the open arms,Wistar rats; 1 mg/kg intragastric,48.6 ± 21.7 s
same,dwell time in the open arms,Wistar rats; 2 mg/kg intragastric,68.4 ± 30.8 s
same,dwell time in the open arms,Wistar rats; 4 mg/kg intragastric,47.5 ± 23.6 s
same,plasma ALT compared with control group (Solvent group),[1],no significant differences
same,plasma AST compared with control group (Solvent group),[1],no significant differences
same,ALT,[1],116.1 U/L
same,AST,[1],163.9 U/L
same,Relative enzyme activity CYP1A1,CYP1A1,1.7
same,activity of metabolic enzyme CYP1A1 in the liver compared with solvent group,CYP1A1,not significantly different
same,Relative enzyme activity CYP2E1,CYP2E1 [2],1.2
same,activity of metabolic enzyme CYP2E1 in the liver compared with solvent group,CYP2E1 [2],not significantly different
"[2H]C1=C(C([2H])([2H])C([2H])([2H])C([2H])([2H])C([2H])([2H])[2H])[C@@]23C[C@@H](CC[C@]2(C)CC1)C(C)(C)O3 [I-6, d10-BAF]",dwell time in the open arms,Wistar rats; 1 mg/kg intragastric,73.3 ± 17.6 s
same,dwell time in the open arms,Wistar rats; 2 mg/kg intragastric,71.4 ± 19.1 s
same,dwell time in the open arms,Wistar rats; 4 mg/kg intragastric,66.3 ± 19.6 s
"[2H]C1([2H])C=C(C([2H])([2H])C([2H])([2H])C([2H])([2H])C([2H])([2H])[2H])[C@@]23C[C@@H](CC[C@]2(C)C1)C(C)(C)O3 [I-7, d11-BAF]",dwell time in the open arms,Wistar rats; 1 mg/kg intragastric,77.5 ± 23.3 s
same,dwell time in the open arms,Wistar rats; 2 mg/kg intragastric,72.6 ± 18.6 s
same,dwell time in the open arms,Wistar rats; 4 mg/kg intragastric,73.8 ± 11.0 s
same,plasma ALT compared with control group (Solvent group),[1],no significant differences
same,plasma AST compared with control group (Solvent group),[1],no significant differences
same,ALT,[1],48.7 U/L
same,AST,[1],107.7 U/L
same,Relative enzyme activity CYP1A1,CYP1A1,1.1
same,activity of metabolic enzyme CYP1A1 in the liver compared with solvent group,CYP1A1,not significantly different
same,Relative enzyme activity CYP2E1,CYP2E1 [2],0.9
same,activity of metabolic enzyme CYP2E1 in the liver compared with solvent group,CYP2E1 [2],not significantly different
"CCCCC1=CCC[C@@]2(C)CC[C@@H]3C[C@]12OC3(C)C [BAF, 4-butyl-α-agarofuran, reference compound]",dwell time in the open arms,Wistar rats; 1 mg/kg intragastric,26.7 ± 27.0 s
same,dwell time in the open arms,Wistar rats; 2 mg/kg intragastric,45.2 ± 39.7 s
same,dwell time in the open arms,Wistar rats; 4 mg/kg intragastric,69.0 ± 49.0 s
same,plasma ALT compared with control group (Solvent group),[1],significantly increased
same,plasma AST compared with control group (Solvent group),[1],significantly increased
same,ALT,[1],189.0 U/L
same,AST,[1],258.7 U/L
same,Relative enzyme activity CYP1A1,CYP1A1,3.8
same,activity of metabolic enzyme CYP1A1 in the liver compared with solvent group,CYP1A1,significantly increased
same,Relative enzyme activity CYP2E1,CYP2E1 [2],1.7
same,activity of metabolic enzyme CYP2E1 in the liver compared with solvent group,CYP2E1 [2],significantly increased
same,anxiolytic activity,[3],significant anxiolytic activity
same,oral bioavailability,[4],low
same,induction effect on liver cytochrome P450 metabolic enzyme CYP1A2,CYP1A2,significant induction effect
same,induction effect on liver cytochrome P450 metabolic enzyme CYP2E1,CYP2E1 [5],significant induction effect
"[2H]C1=C(CCCC)[C@@]23C[C@@H](CC[C@]2(C)CC1([2H])[2H])C(C)(C)O3 [I-2, d3-BAF]",dwell time in the open arms,Wistar rats; 1 mg/kg intragastric,45.6 ± 19.1 s
same,dwell time in the open arms,Wistar rats; 2 mg/kg intragastric,69.7 ± 29.8 s
same,dwell time in the open arms,Wistar rats; 4 mg/kg intragastric,39.0 ± 25.7 s
same,plasma ALT compared with control group (Solvent group),[1],no significant differences
same,plasma AST compared with control group (Solvent group),[1],no significant differences
same,ALT,[1],74.0 U/L
same,AST,[1],115.4 U/L
same,Relative enzyme activity CYP1A1,CYP1A1,1.4
same,activity of metabolic enzyme CYP1A1 in the liver compared with solvent group,CYP1A1,not significantly different
same,Relative enzyme activity CYP2E1,CYP2E1 [2],1.0
same,activity of metabolic enzyme CYP2E1 in the liver compared with solvent group,CYP2E1 [2],not significantly different
"[2H]C([2H])([2H])C([2H])([2H])C([2H])([2H])C([2H])([2H])C1=CCC[C@@]2(C)CC[C@@H]3C[C@]12OC3(C)C [I-5, d9-BAF]",dwell time in the open arms,Wistar rats; 1 mg/kg intragastric,72.0 ± 15.8 s
same,dwell time in the open arms,Wistar rats; 2 mg/kg intragastric,71.2 ± 15.3 s
same,dwell time in the open arms,Wistar rats; 4 mg/kg intragastric,76.5 ± 16.0 s
same,plasma ALT compared with control group (Solvent group),[1],no significant differences
same,plasma AST compared with control group (Solvent group),[1],no significant differences
same,ALT,[1],56.6 U/L
same,AST,[1],137.2 U/L
same,Relative enzyme activity CYP1A1,CYP1A1,1.3
same,activity of metabolic enzyme CYP1A1 in the liver compared with solvent group,CYP1A1,not significantly different
same,Relative enzyme activity CYP2E1,CYP2E1 [2],1.2
same,activity of metabolic enzyme CYP2E1 in the liver compared with solvent group,CYP2E1 [2],not significantly different
"[2H]C1=C(C([2H])([2H])C([2H])([2H])C([2H])([2H])C([2H])([2H])[2H])[C@@]23C[C@@H](CC[C@]2(C)CC1([2H])[2H])C(C)(C)O3 [I-8, d12-BAF]",dwell time in the open arms,Wistar rats; 1 mg/kg intragastric,70.7 ± 23.2 s
same,dwell time in the open arms,Wistar rats; 2 mg/kg intragastric,76.9 ± 14.4 s
same,dwell time in the open arms,Wistar rats; 4 mg/kg intragastric,72.3 ± 17.8 s
"[2H]C1([2H])C=C(CCCC)[C@]23OC(C)(C)[C@H](CC[C@]2(C)C1)C3([2H])[2H] [I-3, d4-BAF]",dwell time in the open arms,Wistar rats; 1 mg/kg intragastric,52.5 ± 26.0 s
same,dwell time in the open arms,Wistar rats; 2 mg/kg intragastric,67.2 ± 22.0 s
same,dwell time in the open arms,Wistar rats; 4 mg/kg intragastric,42.7 ± 25.1 s
